Experiments:
[1] = molecular target: Phosphodiesterase 6 (Bos taurus) (UniProt P23439+P16586+P11541+P22571+P04972+Q95142); assay: Panlabs assay PDE6; assay type: tissue-based; set-up: compound concentration 10 uM; conditions: retina, at 10 µM
[2] = molecular target: Dual specificity calcium/calmodulin-dependent 3',5'-cyclic nucleotide phosphodiesterase 1A (Homo sapiens) (UniProt P54750); assay: Panlabs assay PDE1A; set-up: compound concentration 10 uM; conditions: at 10 µM
[3] = molecular target: 3',5'-cyclic-AMP phosphodiesterase 7B (Homo sapiens, UniProt Q9NP56); assay: Panlabs assay PDE7B; set-up: compound concentration 10 uM; conditions: at 10 µM
Sequence of 3',5'-cyclic-AMP phosphodiesterase 7B (Q9NP56 whole entry): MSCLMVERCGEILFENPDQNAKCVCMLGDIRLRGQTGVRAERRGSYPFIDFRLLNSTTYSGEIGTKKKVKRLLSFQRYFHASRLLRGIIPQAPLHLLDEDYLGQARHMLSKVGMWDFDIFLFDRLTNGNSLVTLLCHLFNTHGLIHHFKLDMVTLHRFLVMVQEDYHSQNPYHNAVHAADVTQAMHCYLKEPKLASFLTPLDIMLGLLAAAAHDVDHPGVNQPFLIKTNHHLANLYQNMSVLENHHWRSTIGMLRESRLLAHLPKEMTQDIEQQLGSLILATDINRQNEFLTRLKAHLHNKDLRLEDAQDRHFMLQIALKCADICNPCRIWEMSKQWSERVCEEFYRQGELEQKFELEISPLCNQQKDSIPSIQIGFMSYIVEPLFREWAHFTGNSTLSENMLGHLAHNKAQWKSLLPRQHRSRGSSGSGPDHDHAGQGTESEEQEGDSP

[4] = molecular target: Alpha-1B adrenergic receptor (Homo sapiens) (UniProt P35368); conditions: Compound concentration 10.0 uM
Sequence of Alpha-1B adrenergic receptor (Homo sapiens) (P35368 whole entry): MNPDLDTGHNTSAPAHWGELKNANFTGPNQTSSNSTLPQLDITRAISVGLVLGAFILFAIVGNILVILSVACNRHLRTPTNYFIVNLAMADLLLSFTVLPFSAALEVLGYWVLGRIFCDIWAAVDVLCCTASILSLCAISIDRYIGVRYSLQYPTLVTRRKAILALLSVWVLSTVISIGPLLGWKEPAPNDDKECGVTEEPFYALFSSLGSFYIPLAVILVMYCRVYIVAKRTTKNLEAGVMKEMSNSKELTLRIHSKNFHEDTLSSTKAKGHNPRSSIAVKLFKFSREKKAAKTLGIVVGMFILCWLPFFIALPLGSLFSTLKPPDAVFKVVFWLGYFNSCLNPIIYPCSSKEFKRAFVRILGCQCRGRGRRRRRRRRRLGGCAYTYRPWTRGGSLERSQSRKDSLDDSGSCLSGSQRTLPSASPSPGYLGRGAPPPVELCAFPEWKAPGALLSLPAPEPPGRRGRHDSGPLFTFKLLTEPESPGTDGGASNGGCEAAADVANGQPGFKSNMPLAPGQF

[5] = molecular target: Beta-1 adrenergic receptor (Homo sapiens) (UniProt P08588); assay: Adrenergic beta1 Eurofins Panlabs panel; conditions: Compound concentration 10.0 uM
[6] = molecular target: 5-hydroxytryptamine receptor 2A (Homo sapiens) (UniProt P28223); assay: Serotonin (5-Hydroxytryptamine) 5-HT2A Eurofins Panlabs panel; conditions: Compound concentration 10.0 uM
[7] = molecular target: Muscarinic acetylcholine receptor M5 (Homo sapiens) (UniProt P08912); conditions: Compound concentration 10.0 uM
Sequence of Muscarinic acetylcholine receptor M5 (Homo sapiens) (P08912 whole entry): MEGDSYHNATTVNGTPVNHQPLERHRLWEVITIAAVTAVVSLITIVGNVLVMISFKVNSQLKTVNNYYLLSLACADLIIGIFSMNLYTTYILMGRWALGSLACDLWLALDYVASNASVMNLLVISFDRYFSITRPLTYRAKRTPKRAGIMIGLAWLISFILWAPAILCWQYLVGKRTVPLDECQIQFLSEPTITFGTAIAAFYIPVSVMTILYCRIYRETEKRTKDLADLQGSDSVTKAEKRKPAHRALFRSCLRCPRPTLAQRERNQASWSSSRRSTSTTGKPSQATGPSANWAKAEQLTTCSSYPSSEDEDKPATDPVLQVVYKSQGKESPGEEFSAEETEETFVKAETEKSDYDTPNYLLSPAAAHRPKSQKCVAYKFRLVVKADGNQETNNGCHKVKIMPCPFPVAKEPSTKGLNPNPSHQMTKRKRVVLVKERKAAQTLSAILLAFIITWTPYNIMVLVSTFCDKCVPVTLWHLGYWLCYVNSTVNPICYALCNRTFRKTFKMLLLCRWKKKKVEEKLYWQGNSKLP

[8] = molecular target: Monoamine oxidase A (MAO-A) (Homo sapiens, UniProt P21397); assay: Monoamine Oxidase MAO-A Eurofins Panlabs panel; conditions: compound concentration 10 uM
[9] = molecular target: Sodium/potassium-transporting ATPase (Sus scrofa) (UniProt P05027+P05024+D2WKD8+D2WKD7+F1ST41); assay: ATPase, Na+/K+, Heart, Pig Eurofins Panlabs panel; assay type: protein-complex assay; conditions: Compound concentration 10.0 uM
[10] = molecular target: Histamine H1 receptor (Homo sapiens) (UniProt P35367); assay: Histamine H1 Eurofins Panlabs panel; conditions: Compound concentration 10.0 uM
[11] = molecular target: Voltage-gated sodium channel, site 2 (Rattus norvegicus, UniProt F1LQQ7+O08562+O88420+O88457+P04774+P04775+P08104+P15389+P15390+Q62968); assay: Sodium Channel, Site 2 Eurofins Panlabs panel; assay type: protein assay; conditions: compound concentration 10 uM
[12] = molecular target: Cannabinoid receptor 1 (Homo sapiens) (UniProt P21554); assay: Cannabinoid CB1 Eurofins Panlabs panel; conditions: Compound concentration 10.0 uM
[13] = molecular target: 3',5'-cyclic-AMP phosphodiesterase 4B (Homo sapiens, UniProt Q07343); assay: 3H-cAMP and 3H-cGMP Scintillation Proximity Assay (PDE4B)
[14] = molecular target: Interleukin-1 receptor type 1 (Mus musculus) (UniProt P13504); assay: Interleukin IL-1 Eurofins Panlabs panel; conditions: Compound concentration 10.0 uM
[15] = molecular target: Alpha-1A adrenergic receptor (Rattus norvegicus) (UniProt P43140); assay: Adrenergic alpha1A Eurofins Panlabs panel; conditions: Compound concentration 10.0 uM
[16] = molecular target: T1, 5-hydroxytryptamine receptor 1A (Homo sapiens) (UniProt P08908); assay: Serotonin (5-Hydroxytryptamine) 5-HT1A Eurofins Panlabs panel; conditions: Compound concentration 10.0 uM
T1 sequence (whole entry): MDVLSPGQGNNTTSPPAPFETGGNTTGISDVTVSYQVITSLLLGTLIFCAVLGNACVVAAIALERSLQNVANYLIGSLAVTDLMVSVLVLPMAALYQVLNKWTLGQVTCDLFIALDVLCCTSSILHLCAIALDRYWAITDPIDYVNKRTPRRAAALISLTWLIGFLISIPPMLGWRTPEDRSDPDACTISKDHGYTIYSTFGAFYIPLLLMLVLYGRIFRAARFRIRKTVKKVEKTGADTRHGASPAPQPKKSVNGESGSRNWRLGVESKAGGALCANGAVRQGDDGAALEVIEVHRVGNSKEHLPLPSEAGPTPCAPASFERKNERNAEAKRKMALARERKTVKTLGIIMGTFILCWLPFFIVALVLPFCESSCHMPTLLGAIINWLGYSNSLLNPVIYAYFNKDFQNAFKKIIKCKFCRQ

[17] = molecular target: Kappa-type opioid receptor (Homo sapiens) (UniProt P41145); assay: Opiate kappa(OP2, KOP) Eurofins Panlabs panel; conditions: Compound concentration 10.0 uM
Sequence of Kappa-type opioid receptor (Homo sapiens) (P41145 whole entry): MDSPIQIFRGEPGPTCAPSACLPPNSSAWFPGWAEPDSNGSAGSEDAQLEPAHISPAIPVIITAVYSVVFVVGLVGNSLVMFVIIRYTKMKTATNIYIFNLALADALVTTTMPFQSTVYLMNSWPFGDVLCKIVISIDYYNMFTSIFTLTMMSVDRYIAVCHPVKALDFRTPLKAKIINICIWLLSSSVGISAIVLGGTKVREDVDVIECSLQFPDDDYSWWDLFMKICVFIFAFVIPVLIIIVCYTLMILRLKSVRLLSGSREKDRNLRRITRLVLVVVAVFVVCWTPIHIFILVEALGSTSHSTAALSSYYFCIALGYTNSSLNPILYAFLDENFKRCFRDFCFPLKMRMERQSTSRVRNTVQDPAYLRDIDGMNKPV

[18] = molecular target: Type-2 angiotensin II receptor (Homo sapiens) (UniProt P50052); assay: Angiotensin AT2 Eurofins Panlabs panel; conditions: Compound concentration 10.0 uM
Sequence of Type-2 angiotensin II receptor (Homo sapiens) (P50052 whole entry): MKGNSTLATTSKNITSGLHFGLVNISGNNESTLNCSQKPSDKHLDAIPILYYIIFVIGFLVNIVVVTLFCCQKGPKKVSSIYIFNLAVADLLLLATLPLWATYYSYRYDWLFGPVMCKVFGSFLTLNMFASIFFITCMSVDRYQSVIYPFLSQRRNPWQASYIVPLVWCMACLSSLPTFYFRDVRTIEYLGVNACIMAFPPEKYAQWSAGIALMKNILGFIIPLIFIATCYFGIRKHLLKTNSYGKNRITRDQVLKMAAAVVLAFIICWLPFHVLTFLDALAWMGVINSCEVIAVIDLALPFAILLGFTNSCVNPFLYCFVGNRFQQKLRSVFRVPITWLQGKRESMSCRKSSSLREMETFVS

[19] = molecular target: Delta-type opioid receptor (Homo sapiens) (UniProt P41143); assay: Opiate delta1 (OP1, DOP) Eurofins Panlabs panel; conditions: Compound concentration 10.0 uM
Sequence of Delta-type opioid receptor (Homo sapiens) (P41143 whole entry): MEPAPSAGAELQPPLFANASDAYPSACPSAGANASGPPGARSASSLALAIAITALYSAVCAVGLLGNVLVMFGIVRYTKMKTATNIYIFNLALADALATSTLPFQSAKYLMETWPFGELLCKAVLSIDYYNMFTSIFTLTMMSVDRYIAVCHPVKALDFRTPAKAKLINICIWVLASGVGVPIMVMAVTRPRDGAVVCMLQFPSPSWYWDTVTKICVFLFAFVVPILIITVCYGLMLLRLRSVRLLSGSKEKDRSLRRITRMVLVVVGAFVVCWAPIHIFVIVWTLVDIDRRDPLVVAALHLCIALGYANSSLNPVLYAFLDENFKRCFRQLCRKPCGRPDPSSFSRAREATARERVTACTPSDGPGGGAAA

[20] = molecular target: Beta-2 adrenergic receptor (Homo sapiens) (UniProt P07550); assay: Adrenergic beta2 Eurofins Panlabs panel; conditions: Compound concentration 10.0 uM
[21] = molecular target: D(2) dopamine receptor (Homo sapiens) (UniProt P14416); assay: Dopamine D2L Eurofins Panlabs panel; conditions: Compound concentration 10.0 uM
[22] = molecular target: Adenosine Transporter (Cavia porcellus) (UniProt H0V4R7+H0UUG1+H0V3Z5); assay: Transporter, Adenosine Eurofins Panlabs panel; assay type: protein assay; conditions: Compound concentration 10.0 uM
[23] = molecular target: cGMP-specific 3',5'-cyclic phosphodiesterase (Homo sapiens, UniProt O76074); assay: 3H-cAMP and 3H-cGMP Scintillation Proximity Assay (PDE5A)
[24] = molecular target: Sigma non-opioid intracellular receptor 1 (Homo sapiens) (UniProt Q99720); assay: Sigma1 Eurofins Panlabs panel; conditions: Compound concentration 10.0 uM
[25] = molecular target: Motilin receptor (Homo sapiens) (UniProt O43193); assay: Motilin Eurofins Panlabs panel; conditions: concentration not given here
Sequence of Motilin receptor (Homo sapiens) (O43193 whole entry): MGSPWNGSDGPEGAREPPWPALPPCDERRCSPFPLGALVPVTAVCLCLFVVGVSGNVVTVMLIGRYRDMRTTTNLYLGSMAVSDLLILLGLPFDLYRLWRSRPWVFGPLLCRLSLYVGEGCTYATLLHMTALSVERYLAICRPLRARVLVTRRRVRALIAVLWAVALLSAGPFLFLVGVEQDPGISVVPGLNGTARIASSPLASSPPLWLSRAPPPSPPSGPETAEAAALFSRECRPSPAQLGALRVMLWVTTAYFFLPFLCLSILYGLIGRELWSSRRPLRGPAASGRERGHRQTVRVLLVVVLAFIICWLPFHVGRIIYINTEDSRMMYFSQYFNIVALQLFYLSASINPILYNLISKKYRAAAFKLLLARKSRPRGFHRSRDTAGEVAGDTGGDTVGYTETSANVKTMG

[26] = molecular target: L-type calcium channel, benzothiazepine site (Rattus norvegicus, UniProt P22002+P27732+Q02485); assay: Calcium Channel L-Type, Benzothiazepine Eurofins Panlabs panel; assay type: protein assay; conditions: compound concentration 10 uM
[27] = molecular target: D(1A) dopamine receptor (Homo sapiens) (UniProt P21728); assay: Dopamine D1 Eurofins Panlabs panel; conditions: Compound concentration 10.0 uM
[28] = molecular target: Glutamate NMDA receptor (Rattus norvegicus) (UniProt P35439+Q00959+Q00960+Q00961+Q62645+Q8VHN2+Q9R1M7); assay: Glutamate, NMDA, Agonism Eurofins Panlabs panel; assay type: protein-complex assay; conditions: Compound concentration 10.0 uM
[29] = molecular target: Phosphodiesterase 4 (Homo sapiens) (UniProt P27815+Q08499+Q07343+Q08493); assay: Phosphodiesterase PDE4 Eurofins Panlabs panel; assay type: protein assay; conditions: Compound concentration 10.0 uM
[30] = molecular target: Adenosine receptor A1 (Homo sapiens) (UniProt P30542); assay: Adenosine A1 Eurofins Panlabs panel; conditions: Compound concentration 10.0 uM
Sequence of Adenosine receptor A1 (Homo sapiens) (P30542 whole entry): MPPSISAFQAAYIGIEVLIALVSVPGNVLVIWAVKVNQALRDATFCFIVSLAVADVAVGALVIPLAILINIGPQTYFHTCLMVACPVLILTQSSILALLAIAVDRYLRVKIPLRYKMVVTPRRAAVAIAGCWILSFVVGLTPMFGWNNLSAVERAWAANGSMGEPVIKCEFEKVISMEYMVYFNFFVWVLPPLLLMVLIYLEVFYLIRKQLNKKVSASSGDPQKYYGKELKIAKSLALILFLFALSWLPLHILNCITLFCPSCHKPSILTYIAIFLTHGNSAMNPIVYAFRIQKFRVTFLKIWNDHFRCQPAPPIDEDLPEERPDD

[31] = molecular target: B2 bradykinin receptor (Homo sapiens) (UniProt P30411); assay: Bradykinin B2 Eurofins Panlabs panel; conditions: Compound concentration 10.0 uM
Sequence of B2 bradykinin receptor (Homo sapiens) (P30411 whole entry): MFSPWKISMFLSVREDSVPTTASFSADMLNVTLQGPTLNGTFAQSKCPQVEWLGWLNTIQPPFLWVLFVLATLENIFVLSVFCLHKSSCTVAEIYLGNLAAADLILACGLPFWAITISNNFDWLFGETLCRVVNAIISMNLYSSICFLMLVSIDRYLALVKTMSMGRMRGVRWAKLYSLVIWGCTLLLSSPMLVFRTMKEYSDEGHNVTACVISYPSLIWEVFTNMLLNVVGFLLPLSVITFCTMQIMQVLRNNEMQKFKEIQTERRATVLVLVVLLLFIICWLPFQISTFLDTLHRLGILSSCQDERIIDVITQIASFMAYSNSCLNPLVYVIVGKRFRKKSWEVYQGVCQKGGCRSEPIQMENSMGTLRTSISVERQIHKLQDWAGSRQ

[32] = molecular target: D(3) dopamine receptor (Homo sapiens) (UniProt P35462); assay: Dopamine D3 Eurofins Panlabs panel; conditions: Compound concentration 10.0 uM
Sequence of D(3) dopamine receptor (Homo sapiens) (P35462 whole entry): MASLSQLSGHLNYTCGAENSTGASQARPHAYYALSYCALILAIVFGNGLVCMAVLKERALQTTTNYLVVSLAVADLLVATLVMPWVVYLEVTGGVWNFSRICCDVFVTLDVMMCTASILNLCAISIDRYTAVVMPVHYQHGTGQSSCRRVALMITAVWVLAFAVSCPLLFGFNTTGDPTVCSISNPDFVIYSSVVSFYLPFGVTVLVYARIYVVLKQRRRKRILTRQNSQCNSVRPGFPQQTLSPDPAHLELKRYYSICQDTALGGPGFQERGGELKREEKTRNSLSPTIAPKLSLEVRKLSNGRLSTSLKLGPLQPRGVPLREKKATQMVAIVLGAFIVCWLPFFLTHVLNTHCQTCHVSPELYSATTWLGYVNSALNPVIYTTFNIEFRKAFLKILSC

[33] = molecular target: Neuropeptide Y receptor type 1 (Homo sapiens) (UniProt P25929); assay: Neuropeptide Y Y1 Eurofins Panlabs panel; conditions: Compound concentration 10.0 uM
Sequence of Neuropeptide Y receptor type 1 (Homo sapiens) (P25929 whole entry): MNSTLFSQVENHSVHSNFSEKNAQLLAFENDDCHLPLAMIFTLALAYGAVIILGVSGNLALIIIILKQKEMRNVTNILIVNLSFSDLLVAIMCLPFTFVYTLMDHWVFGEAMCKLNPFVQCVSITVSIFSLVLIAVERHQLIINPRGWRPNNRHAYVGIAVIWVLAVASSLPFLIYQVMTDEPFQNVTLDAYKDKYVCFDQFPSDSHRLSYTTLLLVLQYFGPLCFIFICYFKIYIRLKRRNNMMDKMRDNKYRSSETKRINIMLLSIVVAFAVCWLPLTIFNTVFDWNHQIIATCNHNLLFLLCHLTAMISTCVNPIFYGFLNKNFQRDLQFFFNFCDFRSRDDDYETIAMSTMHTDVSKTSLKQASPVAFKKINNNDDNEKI

[34] = molecular target: Phosphodiesterase 3 (Homo sapiens) (UniProt Q14432+Q13370); assay: Phosphodiesterase PDE3 Eurofins Panlabs panel; assay type: protein assay; conditions: Compound concentration 10.0 uM
[35] = molecular target: GABA transporter (Rattus norvegicus) (UniProt P31647+P23978+P31646+P48056); assay: Transporter, GABA Eurofins Panlabs panel; assay type: protein assay; conditions: Compound concentration 10.0 uM
[36] = molecular target: Endothelin-1 receptor (Homo sapiens) (UniProt P25101); assay: Endothelin ETA Eurofins Panlabs panel; conditions: Compound concentration 10.0 uM
[37] = molecular target: Prostaglandin F2-alpha receptor (Homo sapiens) (UniProt P43088); assay: Prostanoid FP Eurofins Panlabs panel; conditions: Compound concentration 10.0 uM
[38] = molecular target: Beta-3 adrenergic receptor (Homo sapiens) (UniProt P13945); assay: Adrenergic beta3 Eurofins Panlabs panel; conditions: concentration not given here
Sequence of Beta-3 adrenergic receptor (Homo sapiens) (P13945 whole entry, looked up): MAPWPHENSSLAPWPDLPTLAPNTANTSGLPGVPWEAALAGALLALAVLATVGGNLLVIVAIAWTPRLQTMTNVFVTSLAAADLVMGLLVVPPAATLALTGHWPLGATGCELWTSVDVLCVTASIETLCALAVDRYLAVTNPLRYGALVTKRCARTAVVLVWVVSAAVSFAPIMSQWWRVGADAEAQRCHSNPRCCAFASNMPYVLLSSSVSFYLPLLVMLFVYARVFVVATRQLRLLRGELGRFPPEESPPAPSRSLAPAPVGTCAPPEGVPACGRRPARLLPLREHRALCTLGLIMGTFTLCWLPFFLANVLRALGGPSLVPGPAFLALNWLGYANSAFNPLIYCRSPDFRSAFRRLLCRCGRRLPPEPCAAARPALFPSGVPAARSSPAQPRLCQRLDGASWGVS

[39] = molecular target: Nicotinic Acetylcholine Receptor (Homo sapiens) (UniProt P02708+P07510+P11230+P17787+P30926+P32297+P43681+Q07001+Q15822+Q9UGM1+Q15825+P30532+Q04844+P36544+Q9GZZ6+Q05901); assay: Nicotinic Acetylcholine Eurofins Panlabs panel; assay type: protein-complex assay; conditions: Compound concentration 10.0 uM

## CCC[C@@H]1CNCc2c1[nH]c(=O)c(C#N)c2N1CCC2(CC1)CC2
[1]
  inhibition: 16.7%
[2]
  inhibition: 7.7%
[3]
  inhibition: -2.1%

## CCC[C@H]1CNCc2c1[nH]c(=O)c(C#N)c2N1CCC2(CC1)CC2
[4]
  inhibition: 4.43%
[5]
  inhibition: 5.2%
[6]
  inhibition: 2%
[7]
  inhibition: -6.97%
[8]
  inhibition at 10 µM: 2%
[9]
  inhibition: -1%
[10]
  inhibition: 5%
[11]
  inhibition at 10 µM: -4%
[12]
  inhibition: 31.2%
[13]
  IC50: 3.96 µM (not active)
[14]
  inhibition: 14%
[15]
  inhibition: 2%
[16]
  inhibition: 10%
[17]
  inhibition: 24.2%
[18]
  inhibition: 3%
[19]
  inhibition: 5%
[20]
  inhibition: -6%
[21]
  inhibition: 12%
[22]
  inhibition: 4%
[23]
  IC50: 2.98 µM (not active)
[24]
  inhibition: -4%
[25]
  inhibition: 0%
[26]
  inhibition at 10 µM: 18.5%
[27]
  inhibition: 1%
[28]
  inhibition: 6%
[29]
  inhibition: 58%
[30]
  inhibition: 16%
[31]
  inhibition: -4%
[32]
  inhibition: 2%
[33]
  inhibition: 15%
[34]
  inhibition: -1.5%
[35]
  inhibition: 11%
[36]
  inhibition: 3%
[37]
  inhibition: 13%
[38]
  inhibition: 0%
[39]
  inhibition: 5%
